Key:
[1] = Evaluation of photopolymerization reactivity (Photo-DSC); assay type: physicochemical; settings: ink: 950 mg monomer compound + 50 mg IRGACURE 907; 365 nm, 200 mW/cm^2
Experimental: Inks for evaluation were each prepared by mixing 950 mg of the monomer compound presented in a respective column of each Example or Comparative Example in Table 1 with 50 mg of 2-methyl-1-[4-(methylthio)phenyl]-2-morpholinopropan-1-one (IRGACURE 907, manufactured by BASF Japan Ltd.) serving as a polymerization initiator, by means of a magnetic stirrer.
An evaluation test for photopolymerization reactivity was performed on each ink using a measuring device combining DSC-7020 manufactured by Seiko Instruments Inc. with a spot light source (LA-410UV) manufactured by HAYASHI WATCH-WORKS CO., LTD. (referred to as Photo-DSC hereinafter). As for the light for radiation, light having wavelength of 365 nm was used, and the light quantity was set to 200 mW/cm^2.
The calorific value of the polymerization reaction carried out after radiation of light was measured by Photo-DSC. A measurement of the calorific value, which was obtained when light was applied for sufficient time to complete a polymerization reaction of the monomer compound, was performed twice on one sample. The calorific value obtained with the first measurement contains the calorific value from radiation of light as well as the calorific value from the polymerization reaction of the monomer compound. Therefore, the sample which completed the polymerization reaction by the first measurement was subjected to radiation of light under the same condition, and the calorific value of the heat other than the heat generated from the polymerization reaction of the monomer compound was measured. The calorific value of the polymerization reaction of the monomer compound was determined with a difference between the calorific value obtained in the first measurement and the calorific value obtained in the second measurement.
As for the exothermic characteristic thereof, the time required to achieve the maximum calorific value from the time for starting radiation of light was determined as T1 (sec.), which was used as an index for comparing the speed of the photopolymerization reaction.

[2] = Evaluation of photocuring ability (photorheometer); assay type: physicochemical; settings: 365 nm; for Photocuring (photorheometer) Elastic modulus: ink: 950 mg monomer + 50 mg IRGACURE 907, 50 mW/cm^2, 10 μm gap, saturated elastic modulus; for Photocuring (photorheometer) Curing energy: light energy applied until elastic modulus saturated; for Photocuring (photorheometer) Curing energy / Photocuring result in words (curing state, elastic modulus): 50 mW/cm^2
Experimental: An evaluation for curing ability from photopolymerization was performed on each ink using a measuring device combining a rheometer VAR200AD, manufactured by REOLOGICA Instruments AB, with an LED light source (LIGHTNINGCURE LC-L1) manufactured by Hamamatsu Photonics K.K. (referred to as Photorheometer, hereinafter).
A measurement was performed in the following manner. A sample was placed in a gap of 10 μm between a pair of corm plates each having a diameter of 20 mm, and light (365 nm, 50 mW/cm^2) emitted from the LED light source was applied to the sample. A change in viscoelsticity caused by curing was measured, and the time when the elastic modulus (Pa) was saturated was determined as completion of curing. Based on the measurement result, the terminal point of the elastic modulus was determined, which was determined as an index of a curing level. Typically, the level of 1×10^4 (Pa) is a level where the sample is completely cured. Moreover, light energy (curing energy) applied until the elastic modulus was saturated was calculated by the product of light radiation intensity (here, which was 50 mW/cm^2) and a period (sec.) for light radiation.

Row | Structure (SMILES) | Photopolymerization reactivity (Photo DSC) T1, time required to achieve the maximum calorific value from start of light radiation [1] [s] | Photocuring (photorheometer) Elastic modulus [2] | Photocuring (photorheometer) Curing energy [2] | Photocuring result in words (curing state, elastic modulus) [2] | Photocuring result in words (curing state, elastic modulus) ([2]; listed as Comparative Example 4) | Photocuring result in words (curing state, elastic modulus) ([2]; listed as Comparative Example 7)
1 | C=C(C)C(=O)OCCN1CCOCC1 [Commercial product (e), reference compound] | 30.3 | 8.6*10^4 Pa | 2,050 mJ/cm^2 |  |  | 
2 | C=CC(=O)OCCOc1ccccc1 [Commercial product (a), reference compound] | 2.5 | 4.8*10^4 Pa | 200 mJ/cm^2 |  |  | 
3 | C=C(C)C(=O)OCC(CC)(COC(=O)C(=C)C)COC(=O)N(CC)CC [J-4] | 3.0 | 1.0*10^5 Pa | 110 mJ/cm^2 |  |  | 
4 | C=CC(=O)OCCSCC [Ref. Syn. Ex. 1, 2-acryloxy ethylethyl sulfide, reference compound] | 2.5 | 1.1*10^3 Pa |  | (not cured) | extremely low elastic modulus | 
5 | C=CC(=O)OC1CCN(C(=O)OCC)CC1 [F-1] | 3.2 | 8.4*10^4 Pa | 150 mJ/cm^2 |  |  | 
6 | C=C(C)C(=O)OCC(COC(=O)N(CC)CC)OC(=O)C(=C)C (centres unmarked) [G-4] | 4.8 | 1.0*10^5 Pa | 210 mJ/cm^2 |  |  | 
7 | C=CC(=O)OCCN1CCOCC1 [Commercial product (d), reference compound] | 4.5 | 1.3*10^4 Pa | 365 mJ/cm^2 |  |  | 
8 | C=C(C)C(=O)OCCOC(=O)N1CCCCC1 [E-2] | 12.0 | 9.0*10^4 Pa | 840 mJ/cm^2 |  |  | 
9 | C=C(C)C(=O)OCCOc1ccccc1 [Commercial product (b), reference compound] | 19.3 | 8.0*10^4 Pa | 2,020 mJ/cm^2 |  |  | 
10 | C=C(C)C(=O)OCCOC(=O)N(CC)CC [B-2] | 10.9 | 8.0*10^4 Pa | 1,950 mJ/cm^2 |  |  | 
11 | C=C(C)C(=O)OC1CCN(C(=O)OCC)CC1 [F-2] | 7.0 | 9.4*10^4 Pa | 430 mJ/cm^2 |  |  | 
12 | C=CC(=O)OCCOC(=O)N1CCCCC1 [E-1] | 4.5 | 5.0*10^4 Pa | 380 mJ/cm^2 |  |  | 
13 | C=C(C)C(=O)OCCSCC [Ref. Syn. Ex. 2, 2-methacryloxyethylethyl sulfide, reference compound] | 10.3 | <1.0 Pa |  | (not cured) |  | extremely low elastic modulus
14 | C=CC(=O)OCC(COC(=O)N(CC)CC)OC(=O)C=C (centres unmarked) [G-3] | 2.4 | 1.0*10^5 Pa | 140 mJ/cm^2 |  |  | 
15 | C=CC(=O)OCCOC(=O)N1CCOCC1 [D-1] | 3.2 | 7.9*10^4 Pa | 175 mJ/cm^2 |  |  | 
16 | C=CC(=O)OCC(CC)(COC(=O)C=C)COC(=O)N(CC)CC [J-3] | 2.4 | 1.0*10^5 Pa | 100 mJ/cm^2 |  |  | 
17 | C=CC(=O)OCCOC(=O)NCCCC [Commercial product (c), reference compound] | 2.5 | 3.2*10^4 Pa | 210 mJ/cm^2 |  |  | 
18 | C=C(C)C(=O)OCCOC(=O)N1CCOCC1 [D-2] | 7.0 | 7.6*10^4 Pa | 380 mJ/cm^2 |  |  | 
19 | C=CC(=O)OCCOC(=O)N(CC)CC [B-1] | 3.2 | 9.4*10^3 Pa | 520 mJ/cm^2 |  |  | 
